{"source": "paper PMC9936538", "about": "“Structure–Activity Relationship of N-Ethyl-Hexedrone Analogues: Role of the α-Carbon Side-Chain Length in the Mechanism of Action, Cytotoxicity, and Behavioral Effects in Mice” (ACS Chemical Neuroscience, 2023)", "key": {"Swiss CD-1 mice": {"test_system": "Swiss CD-1 mice", "assay": "Conditioned place preference (CPP)", "format": "in vivo", "settings": "for CPP preference score vs saline: 3 mg/kg i.p.", "description": "Male Swiss CD-1 mice (Janvier, Le Genest, France) weighing 30–35 g (6–8 weeks old), housed in temperature-controlled conditions (22 ± 1 °C) under a 12 h light/dark cycle and with free access to food and drinking water (standard laboratory diet, Panlab SL, Barcelona, Spain), were randomly assigned to an experimental group. Efforts were made to minimize animal use and suffering.\nThe potential of the studied compounds to induce reward was determined using a place conditioning paradigm, as described.[6] For this experiment, an apparatus with two distinct compartments, with differences in tactile and visual cues, communicated by a central corridor, has been used. In brief, CPP was performed in three phases: preconditioning test, conditioning, and postconditioning test. During the preconditioning phase (day 0), mice were placed in the middle of the corridor and had free access to both compartments for 15 min. The time spent in each compartment was recorded and monitored using a specific tracking software (Smart 3.0 Panlab, Barcelona, Spain). […] In the alternative session, mice received a saline i.p. injection and were placed for 20 min in the other compartment. Mice in the control group received a saline injection in every session. The compartment and session in which mice received the drug were randomized. On the test day (postconditioning phase), the same conditions as in the preconditioning phase were applied. A preference score was calculated as the difference between the time spent in the drug-paired compartment in the postconditioning test minus the time spent in the preconditioning phase."}, "[1]": {"assay": "Cytotoxicity in NGF-differentiated PC12 cells, WST-8 cell viability assay", "format": "cell-based", "settings": "rat, WST-8, 24 h exposure, mean ± SEM of 3–4 experiments, read-out: LC50 (approximated), cell viability", "description": "Pheochromocytoma cells (PC12) cells were cultured in collagen-coated dishes in DMEM supplemented with heat-inactivated 5% FBS, 10% horse serum, 10 mM HEPES, 2 mM glutamine, 25 UI/mL penicillin, and 25 μg/mL streptomycin (maintenance medium) and grown at 37 °C in a humidified 5% CO2 atmosphere. Cell differentiation was performed as described[54] with minor modifications. In brief, cells were seeded (250.000 cells/well) onto 96-well plates in the maintenance medium, and after 24 h, the medium was changed to a differentiation medium containing 50 ng/mL NGF. After 24 h, neurite outgrowth was already apparent.\nTreatments with different concentrations of the drug in DMEM were performed 48 h after cell differentiation. 10 μL of the tested drug was added per well, in triplicate, and cells were incubated for 24 h at 37 °C in a humidified 5% CO2 atmosphere. Thereafter, the medium was removed and immediately replaced with a maintenance medium. 10 μL of the CCK-8 Cell Counting Kit, based on 2-(2-methoxy-4-nitrophenyl)-3-(4-nitrophenyl)-5-(2,4-disulfophenyl)-2H-tetrazolium, monosodium salt (WST-8), was added per well and was incubated for 2 h at 37 °C in a humidified 5% CO2 atmosphere. This method has been defined as a good alternative to the 3-(4,5-dimethylthiazol-2-yl)-2,5-diphenyltetrazoliumbromide (MTT) assay.[63] Optical density was measured at 450 nm, using a microplate reader.\nFor in vitro assays, data were normalized with 100% defined as the mean of the technical replicates in the control group and expressed as mean ± SEM. Nonlinear regression was used to fit the different competition curves. Data were plotted and best fitted to a sigmoidal dose–response curve from which an IC50 or LC50 value was obtained. Transporter ratios were calculated as (1/DAT IC50: 1/SERT IC50). Although IC50 values at inhibiting 5-HT uptake for some compounds tested are expressed as >100 μM for clarity purposes, DAT/SERT ratios were calculated with the original raw data. The Cheng–Prusoff equation was used to calculate Ki (affinity): Ki = EC50/(1 + [radioligand concentration/Kd]).[65] The sample size for behavioral experiments was determined using GPower software. One-way or two-way ANOVA, and subsequent Tukey’s posthoc test, conducted only if F was significant, was used to determine the effects of cathinones on cytotoxicity, HLA, OF, and CPP experiments. The α error probability was set at 0.05 (p < 0.05). The exact size group for the behavioral experiments is shown in the corresponding figure legends. All statistic calculations were carried out using GraphPad Prism (GraphPad software, San Diego, CA, USA)."}}, "data": [{"smiles": "CCNC(C)C(=O)c1ccccc1", "note": "(stereo not shown) [NEC, N-ethyl-cathinone]", "values": [{"measurement": "CPP preference score vs saline", "setting": "Swiss CD-1 mice", "result": "significant preference score"}, {"measurement": "CPP rewarding effect vs saline", "setting": "Swiss CD-1 mice; 10 mg/kg i.p.", "result": "produce rewarding effects"}, {"measurement": "CC50 at 24 h", "setting": "[1]", "result": 3.97, "unit": "mM"}]}, {"smiles": "CCCCC(NCC)C(=O)c1ccccc1", "note": "(stereo not shown) [NEH, N-ethyl-hexedrone]", "values": [{"measurement": "CPP rewarding effect vs saline", "setting": "Swiss CD-1 mice; 10 mg/kg i.p.", "result": "produce rewarding effects"}, {"measurement": "CC50 at 24 h", "setting": "[1]", "result": 3.28, "unit": "mM"}]}, {"smiles": "CCCC(NCC)C(=O)c1ccccc1", "note": "(stereo not shown) [NEPD, N-ethyl-pentedrone]", "values": [{"measurement": "CPP preference score vs saline", "setting": "Swiss CD-1 mice", "result": "significant preference score"}, {"measurement": "CPP rewarding effect vs saline", "setting": "Swiss CD-1 mice; 10 mg/kg i.p.", "result": "produce rewarding effects"}, {"measurement": "CC50 at 24 h", "setting": "[1]", "result": 3.82, "unit": "mM"}]}, {"smiles": "CCNC(CC)C(=O)c1ccccc1", "note": "(stereo not shown) [NEB, N-ethyl-buphedrone]", "values": [{"measurement": "CPP preference score vs saline", "setting": "Swiss CD-1 mice", "result": "significant preference score"}, {"measurement": "CPP rewarding effect vs saline", "setting": "Swiss CD-1 mice; 10 mg/kg i.p.", "result": "produce rewarding effects"}, {"measurement": "CC50 at 24 h", "setting": "[1]", "result": 6.24, "unit": "mM"}]}, {"smiles": "CCCCCC(NCC)C(=O)c1ccccc1", "note": "(stereo not shown) [NEHP, N-ethyl-heptedrone]", "values": [{"measurement": "CPP rewarding effect vs saline", "setting": "Swiss CD-1 mice; any dose tested (3, 10, 30 mg/kg i.p.)", "result": "did not induce a significant rewarding effect"}, {"measurement": "CC50 at 24 h", "setting": "[1]", "result": 1.26, "unit": "mM"}]}]}
